The term Ki denotes the equilibrium dissociation constant of an inhibitor or competing ligand from its target. A higher Ki goes with lower affinity.

The text below walks through data of US10501461B2, “Tyrosine amide derivatives as Rho-kinase inhibitors” (CHIESI FARMACEUTICI S.P.A., priority 2017, dated 2019).

One test addresses Rho kinase 1 (ROCK-I) (Homo sapiens, UniProt Q13464). Description: In vitro Rho kinase inhibitory activity assay (ADP-Glo), Rho kinase 1. The conditions noted are these: 10 μM ATP, 25° C., expressed as range of activity. The format is biochemical. The essentials:
(§1)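 Each kinase (ROCK1 or ROCK2) sat with compound for 30 min at 25 °C before 10 μM ATP started a 1 h reaction on 2.5 μM myelin basic protein (Tris pH 7.5, MgCl2, BSA, DTT, 1% DMSO). ADP formed was read by ADP-Glo luminescence. Dose-response IC50s were converted to Ki by Cheng-Prusoff.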
(In ADP-Glo the light output rises with the ADP produced.)

The next test addresses Rho kinase 2 (ROCK-II) (Homo sapiens, UniProt O75116). Put plainly: In vitro Rho kinase inhibitory activity assay (ADP-Glo), Rho kinase 2. The format is biochemical. Particulars: 10 μM ATP, 25° C., expressed as range of activity. The essentials: as §1

Rho kinase 1 (ROCK-I), sequence (Q13464 whole entry): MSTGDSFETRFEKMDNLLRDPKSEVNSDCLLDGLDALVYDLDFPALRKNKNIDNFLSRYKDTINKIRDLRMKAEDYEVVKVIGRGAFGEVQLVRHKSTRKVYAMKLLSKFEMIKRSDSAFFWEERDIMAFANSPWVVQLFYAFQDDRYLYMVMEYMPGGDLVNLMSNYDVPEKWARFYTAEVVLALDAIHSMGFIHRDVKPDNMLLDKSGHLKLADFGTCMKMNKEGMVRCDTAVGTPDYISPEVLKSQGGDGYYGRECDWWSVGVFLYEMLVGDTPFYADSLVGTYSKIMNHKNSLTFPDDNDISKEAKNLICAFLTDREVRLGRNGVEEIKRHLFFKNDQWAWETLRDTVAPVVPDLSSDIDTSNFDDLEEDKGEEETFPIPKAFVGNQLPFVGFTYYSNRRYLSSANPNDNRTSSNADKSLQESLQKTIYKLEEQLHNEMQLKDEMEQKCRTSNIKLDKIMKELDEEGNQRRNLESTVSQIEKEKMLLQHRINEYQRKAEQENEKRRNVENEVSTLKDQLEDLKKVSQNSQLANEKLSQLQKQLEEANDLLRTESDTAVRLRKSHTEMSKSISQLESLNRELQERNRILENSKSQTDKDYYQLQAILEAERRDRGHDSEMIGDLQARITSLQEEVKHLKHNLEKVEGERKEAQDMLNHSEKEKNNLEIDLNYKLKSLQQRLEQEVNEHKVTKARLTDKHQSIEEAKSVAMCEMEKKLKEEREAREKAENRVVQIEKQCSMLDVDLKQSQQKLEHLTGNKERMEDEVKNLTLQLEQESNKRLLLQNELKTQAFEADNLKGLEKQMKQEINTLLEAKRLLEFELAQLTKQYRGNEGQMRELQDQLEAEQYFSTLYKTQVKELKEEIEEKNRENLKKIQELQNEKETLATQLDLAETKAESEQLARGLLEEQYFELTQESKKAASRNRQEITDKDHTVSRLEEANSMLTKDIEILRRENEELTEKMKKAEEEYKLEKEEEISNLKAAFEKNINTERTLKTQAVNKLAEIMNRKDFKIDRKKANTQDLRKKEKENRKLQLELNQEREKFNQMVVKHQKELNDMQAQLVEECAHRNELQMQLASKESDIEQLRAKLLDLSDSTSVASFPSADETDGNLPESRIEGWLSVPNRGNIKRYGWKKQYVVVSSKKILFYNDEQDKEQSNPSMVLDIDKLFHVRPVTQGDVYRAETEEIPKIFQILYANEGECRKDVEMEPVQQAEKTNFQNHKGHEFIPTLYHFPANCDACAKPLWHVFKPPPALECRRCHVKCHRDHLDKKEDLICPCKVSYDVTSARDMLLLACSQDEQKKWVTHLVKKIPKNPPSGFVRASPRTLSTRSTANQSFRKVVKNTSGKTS
Rho kinase 2 (ROCK-II), sequence (O75116 whole entry): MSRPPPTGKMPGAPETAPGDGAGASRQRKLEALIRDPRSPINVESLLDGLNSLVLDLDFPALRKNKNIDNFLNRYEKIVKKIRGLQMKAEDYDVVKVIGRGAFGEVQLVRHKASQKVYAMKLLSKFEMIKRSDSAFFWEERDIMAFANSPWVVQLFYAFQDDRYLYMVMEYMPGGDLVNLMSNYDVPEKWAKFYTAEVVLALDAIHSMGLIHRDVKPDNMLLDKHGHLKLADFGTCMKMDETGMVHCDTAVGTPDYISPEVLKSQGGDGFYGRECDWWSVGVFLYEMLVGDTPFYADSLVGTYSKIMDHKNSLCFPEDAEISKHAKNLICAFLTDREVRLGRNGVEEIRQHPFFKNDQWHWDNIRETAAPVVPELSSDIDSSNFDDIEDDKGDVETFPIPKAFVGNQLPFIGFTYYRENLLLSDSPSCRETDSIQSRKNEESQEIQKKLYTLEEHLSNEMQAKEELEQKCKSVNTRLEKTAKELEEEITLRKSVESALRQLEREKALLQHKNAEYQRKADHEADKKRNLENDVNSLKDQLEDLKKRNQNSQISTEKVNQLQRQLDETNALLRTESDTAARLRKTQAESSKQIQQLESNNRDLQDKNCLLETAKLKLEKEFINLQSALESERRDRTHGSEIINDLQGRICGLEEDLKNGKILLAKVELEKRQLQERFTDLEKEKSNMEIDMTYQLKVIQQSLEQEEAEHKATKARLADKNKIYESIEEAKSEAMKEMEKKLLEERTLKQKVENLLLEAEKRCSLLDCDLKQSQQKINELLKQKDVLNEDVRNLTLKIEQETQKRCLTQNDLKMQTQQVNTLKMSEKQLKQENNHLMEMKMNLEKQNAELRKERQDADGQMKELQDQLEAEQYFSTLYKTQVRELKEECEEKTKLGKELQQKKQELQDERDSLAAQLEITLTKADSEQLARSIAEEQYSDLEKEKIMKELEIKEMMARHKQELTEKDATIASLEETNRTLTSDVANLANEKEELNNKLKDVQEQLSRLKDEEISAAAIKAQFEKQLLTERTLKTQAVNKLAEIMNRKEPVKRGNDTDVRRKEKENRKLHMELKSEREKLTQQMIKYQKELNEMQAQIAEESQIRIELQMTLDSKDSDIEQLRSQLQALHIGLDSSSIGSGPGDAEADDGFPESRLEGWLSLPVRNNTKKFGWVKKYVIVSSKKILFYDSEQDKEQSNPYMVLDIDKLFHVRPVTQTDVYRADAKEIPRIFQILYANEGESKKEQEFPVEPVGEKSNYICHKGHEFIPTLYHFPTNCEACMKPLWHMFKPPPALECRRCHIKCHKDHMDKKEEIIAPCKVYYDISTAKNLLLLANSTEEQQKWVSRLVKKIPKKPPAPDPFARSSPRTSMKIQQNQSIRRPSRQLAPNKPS

In the case of `Cc1c[nH]c2nccc(Oc3ccc(C[C@H](N)C(=O)N4CCc5ncncc5C4)cc3F)c12` [Example 2, (S)-2-amino-1-(7,8-dihydropyrido[4,3-d]pyrimidin-6(5H)-yl)-3-(3-fluoro-4-((3-methyl-1H-pyrrolo[2,3-b]pyridin-4-yl)oxy)phenyl)propan-1-one], the inhibitory constant (Ki) on Rho kinase 1 (ROCK-I) and at Rho kinase 2 (ROCK-II) was below 3 nM throughout.

For the compound `Cc1c[nH]c2nccc(Oc3ccc(C[C@H](N)C(=O)N4CCN(C(=O)c5ccccc5)CC4)cc3F)c12` [Example 167, (S)-2-amino-1-(4-benzoylpiperazin-1-yl)-3-(3-fluoro-4-((3-methyl-1H-pyrrolo[2,3-b]pyridin-4-yl)oxy)phenyl)propan-1-one], the inhibitory constant (Ki) at Rho kinase 1 (ROCK-I) and at Rho kinase 2 (ROCK-II) was below 3 nM throughout.

Consider `N[C@@H](Cc1ccc(Oc2ncnc3[nH]ccc23)cc1)C(=O)N1CCN(Cc2ccccc2)CC1` [Example 226, (S)-3-(4-((7H-pyrrolo[2,3-d]pyrimidin-4-yl)oxy)phenyl)-2-amino-1-(4-benzylpiperazin-1-yl)propan-1-one], for which the Ki at Rho kinase 1 (ROCK-I) and at Rho kinase 2 (ROCK-II) was 3 to 30 nM throughout.

`Cc1c[nH]c2nccc(Oc3ccc(CC(N)C(=O)N4CCN(CCc5ccccc5)CC4)cc3F)c12` (stereo not drawn) [Example 53, 2-amino-3-(3-fluoro-4-((3-methyl-1H-pyrrolo[2,3-b]pyridin-4-yl)oxy)phenyl)-1-(4-phenethylpiperazin-1-yl)propan-1-one]: the inhibition constant (Ki) on Rho kinase 1 (ROCK-I) and on Rho kinase 2 (ROCK-II) was below 3 nM throughout.

As for `Cc1c[nH]c2nccc(Oc3ccc(C[C@@H](N)C(=O)NCC4CCCCC4)cc3)c12` [Example 140, (R)-2-amino-N-(cyclohexylmethyl)-3-(4-((3-methyl-1H-pyrrolo[2,3-b]pyridin-4-yl)oxy)phenyl)propanamide], the inhibition constant (Ki) at Rho kinase 1 (ROCK-I) and on Rho kinase 2 (ROCK-II) was 3 to 30 nM throughout.

Take `Cc1c[nH]c2nccc(Oc3ccc(C[C@H](N)C(=O)N4CCN(C(=O)c5nccs5)CC4)cc3F)c12` [Example 177, (S)-2-amino-3-(3-fluoro-4-((3-methyl-1H-pyrrolo[2,3-b]pyridin-4-yl)oxy)phenyl)-1-(4-(thiazole-2-carbonyl)piperazin-1-yl)propan-1-one]: the Ki at Rho kinase 1 (ROCK-I) and on Rho kinase 2 (ROCK-II) was below 3 nM throughout.

For the compound `Cc1c[nH]c2ncnc(Oc3ccc(C[C@H](N)C(=O)N4C[C@@H]5C[C@H]4CN5C)cc3F)c12` [Example 121, 2-amino-3-(3-fluoro-4-((5-methyl-7H-pyrrolo[2,3-d]pyrimidin-4-yl)oxy)phenyl)-1-((1S,4S)-5-methyl-2,5-diazabicyclo[2.2.1]heptan-2-yl)propan-1-one], the inhibition constant Ki on Rho kinase 1 (ROCK-I) and at Rho kinase 2 (ROCK-II) was 3 to 30 nM in each case.

As for `N[C@H](Cc1ccc(Oc2ccnc3[nH]ccc23)cc1)C(=O)NCC1CCCCC1` [Example 108, (R)-3-(4-((1H-pyrrolo[2,3-b]pyridin-4-yl)oxy)phenyl)-2-amino-N-(cyclohexylmethyl)propanamide], the Ki at Rho kinase 1 (ROCK-I) and at Rho kinase 2 (ROCK-II) was 3 to 30 nM each time.

Consider `N#Cc1c[nH]c2nccc(Oc3ccc(C[C@H](N)C(=O)N4CCN(Cc5ccccn5)CC4)cc3F)c12` [Example 224, (S)-4-(4-(2-amino-3-oxo-3-(4-(pyridin-2-ylmethyl)piperazin-1-yl)propyl)-2-fluorophenoxy)-1H-pyrrolo[2,3-b]pyridine-3-carbonitrile], for which the inhibitory constant (Ki) at Rho kinase 1 (ROCK-I) and on Rho kinase 2 (ROCK-II) was below 3 nM in each case.

In the case of `CN(C)C(=O)C(N)Cc1ccc(Oc2ccnc3[nH]ccc23)cc1` (stereo not drawn) [Example 113, 3-(4-((1H-pyrrolo[2,3-b]pyridin-4-yl)oxy)phenyl)-2-amino-N,N-dimethylpropanamide], the figures for the Ki at Rho kinase 1 (ROCK-I) and on Rho kinase 2 (ROCK-II) were above 30 nM and 3 to 30 nM, respectively.

Regarding `Cc1c[nH]c2ncnc(Oc3ccc(C[C@H](N)C(=O)N4CCN(C5CC5)CC4)cc3F)c12` [Example 119, (S)-2-amino-1-(4-cyclopropylpiperazin-1-yl)-3-(3-fluoro-4-((5-methyl-7H-pyrrolo[2,3-d]pyrimidin-4-yl)oxy)phenyl)propan-1-one], the inhibition constant Ki on Rho kinase 1 (ROCK-I) and on Rho kinase 2 (ROCK-II) was below 3 nM in each case.

`Cc1c[nH]c2nccc(Oc3ccc(C[C@H](N)C(=O)N4CCC(c5ccncc5)CC4)cc3F)c12` [Example 12, (S)-2-amino-3-(3-fluoro-4-((3-methyl-1H-pyrrolo[2,3-b]pyridin-4-yl)oxy)phenyl)-1-(4-(pyridin-4-yl)piperidin-1-yl)propan-1-one]: the Ki on Rho kinase 1 (ROCK-I) and on Rho kinase 2 (ROCK-II) was below 3 nM in each case.

Consider `N#Cc1c[nH]c2nccc(Oc3ccc(C[C@H](N)C(=O)NC4CCCCC4)cc3F)c12` [Example 221, (S)-2-amino-3-(4-((3-cyano-1H-pyrrolo[2,3-b]pyridin-4-yl)oxy)-3-fluorophenyl)-N-cyclohexylpropanamide], for which the Ki at Rho kinase 1 (ROCK-I) and at Rho kinase 2 (ROCK-II) was below 3 nM in each case.

Take `Cc1c[nH]c2nccc(Oc3ccc(CC(N)C(=O)N4CCN(C)CC4CO)cc3F)c12` (stereo not drawn) [Example 64, 2-amino-3-(3-fluoro-4-((3-methyl-1H-pyrrolo[2,3-b]pyridin-4-yl)oxy)phenyl)-1-(2-(hydroxymethyl)-4-methylpiperazin-1-yl)propan-1-one]: the results for the inhibition constant Ki at Rho kinase 1 (ROCK-I) and on Rho kinase 2 (ROCK-II) were 3 to 30 nM and below 3 nM, respectively.

`N[C@H](Cc1ccc(Oc2ccnc3[nH]ccc23)cc1)C(=O)NC1CCCCC1` [Example 112, (R)-3-(4-((1H-pyrrolo[2,3-b]pyridin-4-yl)oxy)phenyl)-2-amino-N-cyclohexylpropanamide]: the inhibitory constant (Ki) at Rho kinase 1 (ROCK-I) was above 30 nM; at Rho kinase 2 (ROCK-II), 3 to 30 nM.

In the case of `N[C@@H](Cc1ccc(Oc2ccnc3[nH]cc(C4=CCNC4)c23)cc1)C(=O)N1CCN(Cc2ccccc2)CC1` [Example 202, (S)-2-amino-1-(4-benzylpiperazin-1-yl)-3-(4-((3-(2,5-dihydro-1H-pyrrol-3-yl)-1H-pyrrolo[2,3-b]pyridin-4-yl)oxy)phenyl)propan-1-one], the Ki at Rho kinase 1 (ROCK-I) and at Rho kinase 2 (ROCK-II) was 3 to 30 nM each time.

For the compound `N[C@@H](Cc1ccc(Oc2ccnc3[nH]ccc23)cn1)C(=O)N1CCN(Cc2ccccc2)CC1` [Example 228, (S)-3-(5-((1H-pyrrolo[2,3-b]pyridin-4-yl)oxy)pyridin-2-yl)-2-amino-1-(4-benzylpiperazin-1-yl)propan-1-one], the inhibitory constant (Ki) on Rho kinase 1 (ROCK-I) was above 30 nM; on Rho kinase 2 (ROCK-II), 3 to 30 nM.

For `N[C@@H](Cc1ccc(Oc2ccnc3[nH]cc(Br)c23)c(F)c1)C(=O)N1CCN(Cc2ccccc2)CC1` [Example 187, (S)-2-amino-1-(4-benzylpiperazin-1-yl)-3-(4-((3-bromo-1H-pyrrolo[2,3-b]pyridin-4-yl)oxy)-3-fluorophenyl)propan-1-one], the inhibitory constant (Ki) on Rho kinase 1 (ROCK-I) and at Rho kinase 2 (ROCK-II) was below 3 nM in each case.

Take `COCc1c[nH]c2nccc(Oc3ccc(C[C@H](N)C(=O)NC4CCOCC4)cc3F)c12` [Example 214, (S)-2-amino-3-(3-fluoro-4-((3-(methoxymethyl)-1H-pyrrolo[2,3-b]pyridin-4-yl)oxy)phenyl)-N-(tetrahydro-2H-pyran-4-yl)propanamide]: the Ki at Rho kinase 1 (ROCK-I) and at Rho kinase 2 (ROCK-II) was 3 to 30 nM throughout.

As to `CSc1nccc(CN2CCN(C(=O)[C@@H](N)Cc3ccc(Oc4ccnc5[nH]cc(C)c45)c(F)c3)CC2)n1` [Example 154, (S)-2-amino-3-(3-fluoro-4-((3-methyl-1H-pyrrolo[2,3-b]pyridin-4-yl)oxy)phenyl)-1-(4-((2-(methylthio)pyrimidin-4-yl)methyl)piperazin-1-yl)propan-1-one], the Ki on Rho kinase 1 (ROCK-I) and at Rho kinase 2 (ROCK-II) was below 3 nM each time.

Turning to `N[C@@H](Cc1ccc(Oc2ccnc3[nH]cc(F)c23)cc1)C(=O)N1CCN(Cc2ccccc2)CC1` [Example 114, (S)-2-amino-1-(4-benzylpiperazin-1-yl)-3-(4-((3-fluoro-1H-pyrrolo[2,3-b]pyridin-4-yl)oxy)phenyl)propan-1-one], the inhibitory constant (Ki) on Rho kinase 1 (ROCK-I) and on Rho kinase 2 (ROCK-II) was below 3 nM throughout.

Turning to `Cc1c[nH]c2nccc(Oc3ccc(C[C@H](N)C(=O)N4CCN(Cc5ccccc5)CC4)cc3)c12` [Example 88, (S)-2-amino-1-(4-benzylpiperazin-1-yl)-3-(4-((3-methyl-1H-pyrrolo[2,3-b]pyridin-4-yl)oxy)phenyl)propan-1-one], the Ki on Rho kinase 1 (ROCK-I) and on Rho kinase 2 (ROCK-II) was below 3 nM throughout.

With `N[C@@H](Cc1ccc(Oc2ccnc3[nH]cc(Br)c23)cc1)C(=O)NC1CCOCC1` [Example 189, (S)-2-amino-3-(4-((3-bromo-1H-pyrrolo[2,3-b]pyridin-4-yl)oxy)phenyl)-N-(tetrahydro-2H-pyran-4-yl)propanamide], the inhibition constant Ki at Rho kinase 1 (ROCK-I) and on Rho kinase 2 (ROCK-II) was below 3 nM in each case.

With `Cc1c[nH]c2ncnc(Oc3ccc(C[C@H](N)C(=O)NC4CCN(C)CC4)cc3F)c12` [Example 117, (S)-2-amino-3-(3-fluoro-4-((5-methyl-7H-pyrrolo[2,3-d]pyrimidin-4-yl)oxy)phenyl)-N-(1-methylpiperidin-4-yl)propanamide], the Ki on Rho kinase 1 (ROCK-I) and on Rho kinase 2 (ROCK-II) was 3 to 30 nM throughout.

Regarding `CN1CCC(NC(=O)[C@@H](N)Cc2ccc(Oc3ccnc4[nH]cc(C#N)c34)c(F)c2)CC1` [Example 222, (S)-2-amino-3-(4-((3-cyano-1H-pyrrolo[2,3-b]pyridin-4-yl)oxy)-3-fluorophenyl)-N-(1-methylpiperidin-4-yl)propanamide], the inhibition constant Ki at Rho kinase 1 (ROCK-I) and on Rho kinase 2 (ROCK-II) was below 3 nM in each case.

As to `N[C@H](Cc1ccc(Oc2ccnc3[nH]ccc23)cc1)C(=O)NCc1ccccc1` [Example 98, (R)-3-(4-((1H-pyrrolo[2,3-b]pyridin-4-yl)oxy)phenyl)-2-amino-N-benzylpropanamide], the Ki on Rho kinase 1 (ROCK-I) and at Rho kinase 2 (ROCK-II) was above 30 nM each time.

Consider `Cc1c[nH]c2nccc(Oc3ccc(C[C@H](N)C(=O)NC4CCOCC4)cc3F)c12` [Example 54, (S)-2-amino-3-(3-fluoro-4-((3-methyl-1H-pyrrolo[2,3-b]pyridin-4-yl)oxy)phenyl)-N-(tetrahydro-2H-pyran-4-yl)propanamide], for which the Ki on Rho kinase 1 (ROCK-I) and on Rho kinase 2 (ROCK-II) was below 3 nM each time.
